According to patent publication US20260097106A1, “AVIRULENT LIVE BACTERIAL VACCINES CURED OF PLASMIDS CONTAINING ANTIMICROBIAL RESISTANCE GENES” (Drs. Koehnk & Feldman, LLP, priority 2022, published 2026):

Tests used:
Type in all cases: cell-based, E. coli
MS060520HM-PCISRAF18 = assay: Growth on blood agar containing 16 μg/ml tetracycline HCl; details: 18 hours at 37° C.
Description: (§1) Comparison of tetracycline resistance between Edema Vac F18 cells cured of plasmids that contain AMR genes (MS060520HM-PCISRAF18) and Entero Vac K88 cells cured of plasmids that contain AMR genes (MS-K88-030321HM-PC2BSRAK88) was performed as follows: preparing subcultures of MS060520HM-PCISRAF18 and MS-K88-030321HM-PC2BSRAK88 on blood agar containing 16 μg/ml tetracycline HCl, incubating for 18 hours at 37° C., and observing haemolytic growth.

[1] = tested on: MS-K88-030321HM-PC2BSRAK88; assay: as above; details: 18 hours at 37° C.
Description: as §1

[2] = tested on: MS060520HM-PCISRAF18 cells; assay: Tetracycline HCl serial dilution in TSB media, turbidity
Description: Further evaluation of tetracycline sensitivity of cured MS060520HM-PCISRAF 18 cells was performed as follows: inoculating 10 ml of TSB media with MS060520HM-PCISRAF18 cells, incubating at 37° C. for 22 hours on orbital shaker at 150 rpm, preparing 1:1 serial dilutions of 5 ml tetracycline HCL in TSB media (from stock of 640 mg tetracycline HCl in 5 ml ultrapure water), inoculating the serial dilutions with 10 ul of the fermentate.

[3] = tested on: ECMS091703HM-competent (competent Entero Vac K88 cells); assay: AMR disc testing on Mueller Hinton agar plates; details: antibiotic disc
Description: (§2) AMR testing was performed comparing ECMS091703HM-SR and ECMS091703HM-competent cells cultured on Mueller Hinton agar plates using Neomycin (NE 30) and Sulfathiazine (ST 0.25) discs. A master plate of ECMS091703HM-SR was produced as follows: subculturing a colony of ECMS091703HM-SR from LB agar containing 5% sucrose on new LB agar containing 5% sucrose, incubating overnight at 37° C., and storing sealed at 2-8° C.

[4] = tested on: ECMS091703HM-SR (Entero Vac K88 cells cured of plasmids that contain AMR genes); assay: AMR disc testing on Mueller Hinton agar plates
Description: as §2

[5] = tested on: MS112101HM-competent (competent Edema Vac F18 cells); assay: AMR disc testing on Mueller Hinton agar plates; details: antibiotic disc
Description: (§3) AMR testing was performed comparing MS112101HM—SR, MS112101HM-AMR5, and MS112101HM-competent cells cultured on Mueller Hinton agar plates using Sulfatrim (SXT), Tetracycline (TE 30), Neomycin (NE 30), Sulfathiazine (ST 0.25), and Gentamicin (GM 10) discs.

[6] = tested on: MS112101HM-AMR5 (Edema Vac F18 transformed with AMR5 plasmid); assay: AMR disc testing on Mueller Hinton agar plates; details: antibiotic disc, Mueller Hinton plates
Description: as §3

[7] = tested on: MS112101HM-SR (Edema Vac F18 cells cured of plasmids that contain AMR genes); assay: AMR disc testing on Mueller Hinton agar plates
Description: as §3

What does the source list for `CN(C)[C@@H]1C(O)=C(C(N)=O)C(=O)[C@@]2(O)C(O)=C3C(=O)c4c(O)cccc4[C@@](C)(O)[C@H]3C[C@@H]12.Cl` [Tet HCl, Tetracycline HCL]?
Tetracycline resistance (haemolytic growth) (MS060520HM-PCISRAF18): confirmed tetracycline resistance; Tetracycline resistance (haemolytic growth) [1]: did not display any tetracycline resistance; Turbidity 8 hours post inoculation ([2]; Tet HCl 2 μg/ml in TSB media): Pos; Turbidity 24 hours post inoculation ([2]; Tet HCl 2 μg/ml in TSB media): Pos; Turbidity 8 hours post inoculation ([2]; Tet HCl 4 μg/ml in TSB media): Pos; Turbidity 24 hours post inoculation ([2]; Tet HCl 4 μg/ml in TSB media): Pos; Turbidity 8 hours post inoculation ([2]; Tet HCl 8 μg/ml in TSB media): Pos; Turbidity 24 hours post inoculation ([2]; Tet HCl 8 μg/ml in TSB media): Pos; Turbidity 8 hours post inoculation ([2]; Tet HCl 16 μg/ml in TSB media): Pos; Turbidity 24 hours post inoculation ([2]; Tet HCl 16 μg/ml in TSB media): Pos; Turbidity 8 hours post inoculation ([2]; Tet HCl 32 μg/ml in TSB media): Pos; Turbidity 24 hours post inoculation ([2]; Tet HCl 32 μg/ml in TSB media): Pos; Turbidity 8 hours post inoculation ([2]; Tet HCl 64 μg/ml in TSB media): Slight; Turbidity 24 hours post inoculation ([2]; Tet HCl 64 μg/ml in TSB media): Pos; Turbidity 8 hours post inoculation ([2]; Tet HCl 128 μg/ml in TSB media): Neg; Turbidity 24 hours post inoculation ([2]; Tet HCl 128 μg/ml in TSB media): Pos; Concentration with inhibited growth ([2]; tetracycline HCl in TSB media): 128 µg/mL

Sulfathiazine [ST 0.25] was tested. Which “Ring measurement (radius, mm)” value [3] did it give?
The value was 13 mm.

What about the “Ring measurement (radius, mm)” value ([4]; antibiotic disc, Mueller Hinton plates, ECMS091703HM-SR) of the same compound?
Its value is 20 mm.

And the “Resistance of the strain to the antibiotic (in words)” value ([4]; disc test, ECMS091703HM-SR compared with ECMS091703HM-competent)?
Its value is “less resistance”.

And the “Ring measurement (radius, mm)” value [5]?
The value was 0 mm.

What about the “Ring measurement (radius, mm)” value [6] of the same compound?
The value was 18 mm.

What about the “Ring measurement (radius, mm)” value ([7]; antibiotic disc, Mueller Hinton plates, MS112101HM-SR) of the same compound?
Its value is 15 mm.

And the “Resistance of the strain to the antibiotic (in words)” value ([7]; disc test, MS112101HM-SR compared with MS112101HM-competent)?
The value was “less resistance”.
